This is an account of results in publication PMC8000447, “Assessment of Finite and Infinite Dose In Vitro Experiments in Transdermal Drug Delivery” (Pharmaceutics, 2021).

Several values for one entry are separate records, joined by “and”; a condition that tells them apart may be missing. Equal values may be shown once.

A short description of data set [1]: Kinetic permeation assay with infinite dosage using vertical Franz diffusion cells. It is filed as in vitro ADME, pig. To be noted: infinite dose 300 µL in propylene glycol (DS 3%, IBU 1%, LIDO 2%, CAF 1% w/v); for Papp / AUC / Cmax: female, white/landrace, pig; for Papp / AUC / Cmax / J (flux) / AUC (%): mean ± SD; for Papp / J (flux): n = 3; for Papp: read-out: Kp (permeability coefficient) (converted); for AUC / Cmax: receptor fluid; for AUC: read-out: AUC (area under the curve); for Cmax: read-out: Cmax (maximum concentration); for Kin. of release (best-fitting kinetic model): up to 30 h; for AUC (%): percentage release. Here is the method:
(§1) A porcine skin membrane was employed for both the permeation and penetration assays. […] The skin was provided by the Department of Cardiology of the Hospital Clinic (Barcelona, Spain). Dorsal unboiled skin (female white/landrace pigs) was prepared: the bristles were removed (A5 Clipper 78005-500, Oster professional, McMinnville, OR, USA) and dermatomed (Dermatome GA630, Aesculap, Tuttlingen, Germany) at 500 ± 50 μm thick. Thickness was verified with a digital micrometer 40EX (Mahr, Göttingen, Germany). Skin biopsies were cut into discs with 2.5 cm diameter. The skin discs were stored until the experiment (at −20 °C).
The kinetic diffusion assay was conducted using a Vision Microette (Vision G2 V14.1) with an Autosampler and an Autofill Collector (Hanson Research, Chatworths, CA, USA) automated vertical diffusion cell (7 mL acceptor chamber, and surface area of application of 1.77 cm^2).
The receptor fluid (RF) used was aqueous buffer solution of PBS in the case of DS, IBU, and CAF, and NaH2PO4 (0.05 M, pH = 7) in the case of LIDO. Receptor fluid was continuously stirred with magnetic beads at 700 rpm to keep the contents of the receptor chamber homogenous. The system was thermostatted at 43 ± 1 °C to provide a skin surface temperature of 32 ± 1 °C.
Once TEWL was measured, 300 μL (infinite dose) of the four active solutions was applied in triplicate to each Franz cell (Hanson Research, Chatworths, CA, USA) and donor compartment was sealed to donor chamber to avoid evaporation. Samples (700 µL) were collected at specific times (15 min, 30 min, 1 h, 2 h, 4 h, 6 h, 10 h, 20 h, and 30 h), and automatically passed into the corresponding vial. The same volume of receptor fluid was automatically replaced with fresh solution at each sampling. The content of receptor samples was diluted in 2 mL graduated flasks and filtered with a 0.45 µm nylon filter (Cameo, Sigma-Aldrich, St Louis, MO, USA) previous analyzed with a high-performance liquid chromatography-diode array detector (HPLC-DAD) (Section […]). The kinetics of penetration were determined, simulating the drug elimination in the body.
The cumulative amount of the active pharmaceutical ingredient (API) per surface area (Qn, µg/cm^2) was obtained for each replicate cell to calculate the release of the four APIs. The equation used to determine the cumulative amount of API in the receptor fluid was the following Equation (1):(1) Qn= Cn×Vc+ ∑i=1n−1Ci×Vs/A where Qn is the cumulative amount of API released at time n (μg/cm^2); Cn is the concentration of active ingredient in the sample (μg/mL); Vc is the volume of the vertical diffusion cell; ∑i=1n−1 Ci is the sum of the concentrations of API (µg/mL) determined at sampling intervals 1 through n − 1; Vs is the sample volume and A is the surface area of the sample.
The percentage of cumulative amount of API permeated over time was calculated by the following Equation (2):(2) % Release API= Qn/Total amount of API applied×100
Experimental data of cumulative amount (Qn and % Release API) were plotted versus time or its square root ( t ) to obtain the API absorption and penetration kinetics. Different mathematical model (Zero-order, First-order and Higuchi) were evaluated with the non-linear regression software STATGRAPHICS plus 5 (Statgraphics Technologies, Inc., The Plains, VA, USA). The best-fitting model was selected according to the highest correlation coefficient value (r^2) and it was possible to calculate other parameters, such as flux (J), the permeability coefficient (Kp), lag time (Tl), the maximum concentration (Cmax), the maximum time (tmax), and the area under the curve (AUC).

A short description of data set [2]: Penetration assay with finite dosage using vertical Franz diffusion cells. Format: in vitro ADME, pig. The conditions noted are these: 24 h; for % API detected in dermis (D) / % API detected in epidermis (E) / % API detected in receptor fluid (RF) / % API detected in stratum corneum (SC): finite dose 20 µL in propylene glycol, normalized amount, mean ± SD, n = 3; for % API total permeation (Perm): sum of epidermis, dermis and receptor fluid, finite dose 20 µL. On the procedure: as §1
OECD guidelines and the published opinions of the Scientific Committee on Cosmetic Products and Non-Food Products (SCCS) were adhered in the penetration protocol. The excised pig skin was placed in a static Franz diffusion cell (Lara Spiral, Couternon, France) (1.86 cm^2 and 3 mL) with the dermis side facing the acceptor chamber. The receptor chamber was filled with receptor fluid. The receptor fluid was the same used in the kinetic assay (Section 2.4). Air bubbles entrapped below the skin were carefully removed and the assembled cells were deposited in a temperature-regulated water bath (Telesystem HP 15, H+P Labortechnik GmgH, Oberschleissheim, Germany) on top of a water-resistant magnetic stirring plate (Variomag 15 and Telemodul, H+P Labortechnik GmgH, Oberschleissheim, Germany). The homogeneity of receptor fluid was maintained by continuously stirring at 700 rpm. The system was thermostatted at 43 ± 1 °C to provide a skin surface temperature of 32 ± 1 °C.
The integrity and permeability of membranes were evaluated with the trans-epidermal water loss (TEWL) value as detailed in Section 2.3.
The finite assay protocol was conducted as described in previous studies. Briefly, 20 µL of each API solution was applied to the skin surface in the donor chamber (n = 3). According to the OECD methodology used, penetration studies were performed for 24 h. After the exposure time, the receptor fluid of all the membranes was collected to transfer to a 5 mL volumetric flask. The remaining API solution was removed from skin surface with specific washing procedure (W). Stratum corneum layers were obtained by tape stripping protocol with adhesive tape (D-Squame, Cuderm Corporation, Dallas, TX, USA) applied under controlled pressure (80 g/cm^2). Viable epidermis (E) and the dermis (D) were separated after heating the skin at 80 °C for several seconds. All samples were extracted with adequate solvent (Table 1) and filtered with a 0.45 µm Nylon filter (Cameo, Sigma-Aldrich, St. Louis, MO, USA) before HPLC quantification (Section 2.6).
The amount permeated in the skin was considered the sum of that in the epidermis, dermis, and receptor fluid. […]

The term AUC denotes the area under the concentration-time curve, a measure of exposure. In the case of `O=C(O)Cc1ccccc1Nc1c(Cl)cccc1Cl` [Diclofenac sodium], in data set [1], the Papp is 0.0442 ×10⁻⁶ cm/s, the AUC was 168 ± 38.5 µg·h/mL, the Cmax was determined as 38100 ± 10000 ng/mL and the “J (flux)” value worked out at 3.94 ± 0.77 µg/cm^2/h. In data set [1], the “Kin. of release (best-fitting kinetic model)” value (“Kin. of release” below) is reported as “Ord 0” and the “AUC (%)” value worked out at 15.43 ± 4.41%. In addition, in data set [2], the “% API detected in dermis (D)” value was 1.41 ± 0.49%, the “% API detected in epidermis (E)” value is 5.54 ± 2.41%, the “% API detected in receptor fluid (RF)” value is 8.53 ± 3.99% and the “% API detected in stratum corneum (SC)” value stood at 8.08 ± 2.62%. The “% API total permeation (Perm)” value in data set [2] amounted to 15.49 ± 6.89%.

Regarding `CC(C)Cc1ccc(C(C)C(=O)O)cc1` (stereo not drawn) [Ibuprofen, ibuprofen], in data set [1], the Papp is 0.0694 ×10⁻⁶ cm/s, the exposure (AUC) was 163 ± 28.3 µg·h/mL, the Cmax came to 66700 ± 16100 ng/mL and the “J (flux)” value worked out at 2.60 ± 0.69 µg/cm^2/h. In addition, in data set [1], the “Kin. of release” value is given as “Ord 0” and the “AUC (%)” value amounted to 38.97 ± 4.56 %. In data set [2], the “% API detected in dermis (D)” value is 2.79 ± 0.37%; the “% API detected in epidermis (E)” value came out at 2.92 ± 0.61%; the “% API detected in receptor fluid (RF)” value is 53% and 52.68 ± 5.01%; the “% API detected in stratum corneum (SC)” value is 11% and 11.06 ± 1.15%. Besides, in data set [2], the “% API total permeation (Perm)” value worked out at 58.39 ± 6.32%.

In the case of `Cn1c(=O)c2c(ncn2C)n(C)c1=O` [Caffeine, caffeine], in data set [1], the Papp is 0.0242 ×10⁻⁶ cm/s, the AUC amounted to 72.8 ± 32.6 µg·h/mL, the Cmax is 13900 ± 1590 ng/mL and the “J (flux)” value is 0.86 ± 0.07 µg/cm^2/h. Also, in data set [1], the “Kin. of release” value was “Ord 0” and the “AUC (%)” value was determined as 4.55 ± 3.31%. Besides, in data set [2], the “% API detected in dermis (D)” value is recorded as 0.55 ± 0.09%, the “% API detected in epidermis (E)” value worked out at 0.55 ± 0.23%, the “% API detected in receptor fluid (RF)” value amounted to 3.62 ± 1.75% and the “% API detected in stratum corneum (SC)” value stood at 3.11 ± 2.33%. Also, the “% API total permeation (Perm)” value in data set [2] is reported as 4.72 ± 1.87%.
